One data set deals with MV4-11. Nature of the data set: Antiproliferative activity against human MV4-11 cells assessed as inhibition of cell proliferation incubated for 72 hrs by CCK-8 assay. The data set is classed as functional, cell-based. The note with it: MV4-11, 72 h. On the technique in general: Tetrazolium assays rely on reduction of a dye to a coloured formazan, in cell work by metabolically active cells.

In data set [1] the test system is HT-29. Nature of the data set: cells. The note with it: Homo sapiens, HT-29, 72 h.
Description: Antiproliferative activity against human HT-29 cells assessed as inhibition of cell proliferation incubated for 72 hrs by CCK-8 assay
The target in data set [2] is T1, Serine/threonine-protein kinase Chk1 (Homo sapiens) (UniProt O14757).
T1 sequence (whole entry): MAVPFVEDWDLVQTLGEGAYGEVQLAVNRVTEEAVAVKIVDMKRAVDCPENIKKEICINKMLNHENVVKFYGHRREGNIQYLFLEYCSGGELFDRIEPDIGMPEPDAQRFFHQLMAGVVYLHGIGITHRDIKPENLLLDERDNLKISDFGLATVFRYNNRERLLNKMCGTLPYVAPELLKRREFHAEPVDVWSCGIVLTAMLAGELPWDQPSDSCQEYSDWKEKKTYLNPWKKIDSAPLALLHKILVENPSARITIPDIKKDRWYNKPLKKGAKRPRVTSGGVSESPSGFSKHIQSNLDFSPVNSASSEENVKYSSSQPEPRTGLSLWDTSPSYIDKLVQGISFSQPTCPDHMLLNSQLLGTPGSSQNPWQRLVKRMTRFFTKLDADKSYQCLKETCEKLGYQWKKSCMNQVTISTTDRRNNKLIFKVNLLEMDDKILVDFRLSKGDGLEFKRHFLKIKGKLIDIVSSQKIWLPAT
Nature of the data set: Inhibition of CHK1 in human MV4-11 cells assessed as decrease in S296 phosphorylation at 11.11 nM measured for 24 hrs by Western blot analysis. It is filed as cell-based. For orientation: A western blot detects proteins with antibodies after separation by electrophoresis.

Data set [3] relates to HT-29. The data set can be described thus: Synergistic antiproliferative activity against human HT-29 cells assessed as inhibition of cell proliferation incubated for 72 hrs in presence of 50 nM 5-((4-((morpholin-2-ylmethyl)amino)-5-(trifluoromethyl)pyridin-2-yl)amino)pyrazine-2-carbonitrile by CCK-8 assay. The note with it: HT-29, 72 h. It is filed as functional, cell-based.

The subject of data set [4] is HT-29. Nature of the data set: Antitumor activity against human HT-29 cells xenografted in female BALB/c mouse assessed as tumor growth inhibition at 30 mg/kg, iv administered once daily for 21 days and measured after 3 days by vernier calipers analysis. The note with it: HT-29, 576 h, read-out: TGI. In general terms: In xenograft studies the graft and the host belong to different species.

For another data set, the system named is A549. The data set can be described thus: cells. The note with it: Homo sapiens, A549, 72 h.
For a further data set, the system named is HCT-116. The data set can be described thus: cells. The note with it: Homo sapiens, HCT-116, 72 h.
The next data set deals with HL-60. The data set can be described thus: cells. The note with it: Homo sapiens, HL-60, 72 h.
For data set [5], the system named is HT-29. The data set can be described thus: Synergistic antiproliferative activity against human HT-29 cells assessed as inhibition of cell proliferation incubated for 72 hrs in presence of 50 nM gemcitabine by CCK-8 assay. The note with it: HT-29, 72 h. It is filed as functional, cell-based.
For a further data set, the system named is A2780. The data set can be described thus: cells. The note with it: Homo sapiens, A2780, 72 h.
The next data set relates to MDA-MB-468. Nature of the data set: cells. The note with it: Homo sapiens, MDA-MB-468, 72 h.
The next data set deals with OVCAR-3. The data set can be described thus: cells. The note with it: Homo sapiens, OVCAR-3, 72 h.
A short description of data set [6]: Metabolic stability in human liver microsome assessed as intrinsic clearance preincubated with compound for 10 mins followed by NADPH addition and measured up to 60 min by LC-MS/MS analysis. The data set is classed as ADME. The note with it: liver microsomes, time < 70 min, read-out: CLH.
Data set [7] in a line: Metabolic stability in human liver microsome assessed as half life preincubated with compound for 10 mins followed by NADPH addition and measured up to 60 min by LC-MS/MS analysis. It is filed as ADME. The note with it: liver microsomes, time < 70 min.
The nature of data set [8]: Metabolic stability in human microsome assessed as intrinsic clearance preincubated with compound for 10 mins followed by NADPH addition and measured up to 60 min by LC-MS/MS analysis. The note with it: microsomes, time < 70 min, read-out: CLH. It is filed as ADME.

Calls of active or inactive are those of the source. The calls are words filed in the database; no cut-off is given here. Where only a bound is given, the exact number is not on record here.

Description for A2780: Antiproliferative activity against human A2780 cells assessed as inhibition of cell proliferation incubated for 72 hrs by CCK-8 assay
Description for A549: Antiproliferative activity against human A549 cells assessed as inhibition of cell proliferation incubated for 72 hrs by CCK-8 assay
Description for HCT-116: Antiproliferative activity against human HCT-116 cells assessed as inhibition of cell proliferation incubated for 72 hrs by CCK-8 assay
Description for HL-60: Antiproliferative activity against human HL-60 cells assessed as inhibition of cell proliferation incubated for 72 hrs by CCK-8 assay
Description for MDA-MB-468: Antiproliferative activity against human MDA-MB-468 cells assessed as inhibition of cell proliferation incubated for 72 hrs by CCK-8 assay
Description for OVCAR-3: Antiproliferative activity against human OVCAR-3 cells assessed as inhibition of cell proliferation incubated for 72 hrs by CCK-8 assay

With `N#Cc1ncc(Nc2ncc3[nH]c(=O)ccc3n2)cc1N[C@H]1CCCNC1`, the half-inhibitory concentration (IC50) (usually the midpoint of a concentration-inhibition curve) with MV4-11 was 0.0195 µM; in the data set with HT-29 [1], over 10 µM.
The matching figures for `N#Cc1ncc(Nc2ncc3[nH]c(=O)ccc3n2)cc1N[C@H]1CC[C@H](N)CC1`: 0.0394 µM and over 10 µM.
As for `Nc1ccn([C@@H]2O[C@H](CO)[C@@H](O)C2(F)F)c(=O)n1` [GEMCITABINE], the inhibition entry in data set [2] was “Active”. Besides, the IC50 with HT-29 [3] was determined as 0.177 µM. In addition, the inhibition in vivo at 30 mg/kg with HT-29 [4] stood at 33.5%.
Turning to `CN(C)CCNc1cc(Nc2ncc3c(ccc(=O)n3CC(F)F)n2)cnc1C#N`, the IC50 in the data set on MV4-11 was 3.81 µM.
Regarding `CC(C)(C)OC(=O)N1CCC(Nc2cc(Nc3ncc4c(n3)CCC(=O)N4)cnc2C#N)C1` (single isomer, unassigned), the half-maximal inhibitory concentration (IC50) with MV4-11 and with HT-29 [1] was over 10 µM throughout.
With `N#Cc1ncc(Nc2ncc3c(ccc(=O)n3CC(F)F)n2)cc1OC[C@H]1CCCNC1`, the IC50 in the data set with MV4-11 is over 10 µM.
Consider `N#Cc1cnc(Nc2cc(NC[C@H]3CNCCO3)c(C(F)(F)F)cn2)cn1` [SRA-737], for which the IC50 was over 10 µM in the data set on A549; over 10 µM in the data set on HCT-116; over 10 µM with HL-60; 0.177 µM in the data set on HT-29 [5]; over 10 µM in the data set on A2780; over 10 µM with HT-29 [1]. Moreover, the IC50 in the data set with MDA-MB-468 and with OVCAR-3 was over 10 µM in each case.
Regarding `N#Cc1ncc(Nc2ncc3c(ccc(=O)n3CC(F)F)n2)cc1NCCN`, the IC50 in the data set with MV4-11 was over 10 µM.
The same measure, in the same setting: for `N#Cc1ncc(Nc2ncc3c(ccc(=O)n3CC(F)F)n2)cc1OCC1CCNCC1` the value was over 10 µM; for `N#Cc1ncc(Nc2ncc3c(ccc(=O)n3CC(N)=O)n2)cc1N[C@H]1CC[C@@H](N)CC1`, 8.64 µM.
Regarding `N#Cc1ncc(Nc2ncc3[nH]c(=O)ccc3n2)cc1N1CCOCC1`, the IC50 in the data set on HT-29 [1] is over 10 µM.
Regarding `N#Cc1ncc(Nc2ncc3c(n2)CCC(=O)N3)cc1NC1CCNC1` (single isomer, unassigned), the half-inhibitory concentration (IC50) with MV4-11 and in the data set with HT-29 [1] was over 10 µM throughout.
Turning to `N#Cc1ncc(Nc2ncc3[nH]c(=O)ccc3n2)cc1NC1CCNC1` (single isomer, unassigned), the half-inhibitory concentration (IC50) in the data set with MV4-11 and in the data set on HT-29 [1] was over 10 µM throughout.
For the compound `N#Cc1ncc(Nc2ncc3c(ccc(=O)n3CC(F)(F)F)n2)cc1N[C@H]1CC[C@@H](N)CC1`, in the data set with MV4-11, the half-maximal inhibitory concentration (IC50) turned out to be 2.11 µM.
With `N#Cc1ncc(Nc2ncc3c(ccc(=O)n3CC(F)F)n2)cc1N[C@H]1CC[C@H](N)CC1`, the IC50 with MV4-11 was 2.67 µM.
Regarding `O=C(O)Cc1ccccc1Nc1c(Cl)cccc1Cl` [DICLOFENAC], in data set [6], the CLint scaled was 242 mL/min/kg. Besides, in [7], the half-life (in general, the time in which the quantity being followed falls by half) was found to be 5.14 min. Also, the microsomal CLint in [8] amounted to 269 µL/min/mg.
Regarding `N#Cc1ncc(Nc2ncc3c(ccc(=O)n3CC(F)F)n2)cc1O[C@@H]1CCNC1`, in the data set on MV4-11, the IC50 was over 10 µM.
For the compound `CC(C)n1c(=O)ccc2nc(Nc3cnc(C#N)c(N[C@H]4CC[C@@H](N)CC4)c3)ncc21`, the IC50 in the data set with MV4-11 was found to be 2.19 µM.
Same read-out and setting: for `N#Cc1ncc(Nc2ncc3c(ccc(=O)n3CC(F)F)n2)cc1N[C@@H]1CCCNC1` the value was 3.63 µM.
On the same count and under the same terms, the figure for `N#Cc1ncc(Nc2ncc3c(ccc(=O)n3CC(F)F)n2)cc1O[C@@H]1CCCNC1` is 4.88 µM; for `N#Cc1ncc(Nc2ncc3c(ccc(=O)n3CC(F)F)n2)cc1NCC1CCCCN1` (configuration not stated) it is 3.8 µM; for `N#Cc1ncc(Nc2ncc3c(ccc(=O)n3CC(F)F)n2)cc1OC1CCNCC1` it is over 10 µM.
Same read-out and setting: for `N#Cc1ncc(Nc2ncc3c(ccc(=O)n3CC(F)F)n2)cc1NC1CCNCC1` the value was over 10 µM; for `N#Cc1ncc(Nc2ncc3c(ccc(=O)n3CC(F)(F)F)n2)cc1N[C@H]1CCNC1`, over 10 µM; for `CN1CCC(Oc2cc(Nc3ncc4c(ccc(=O)n4CC(F)F)n3)cnc2C#N)CC1`, over 10 µM.
`N#Cc1ncc(Nc2ncc3c(ccc(=O)n3CC(F)F)n2)cc1O[C@H]1CCCNC1`: the IC50 in the data set with MV4-11 was over 10 µM.
In the case of `Cn1c(=O)ccc2nc(Nc3cnc(C#N)c(N[C@H]4CC[C@@H](N)CC4)c3)ncc21`, the IC50 with MV4-11 was found to be 0.883 µM.
Same read-out and setting: for `N#Cc1ncc(Nc2ncc3c(ccc(=O)n3CC(F)F)n2)cc1NC[C@H]1CCNC1` the value was over 10 µM.
`N#Cc1ncc(Nc2ncc3[nH]c(=O)ccc3n2)cc1NCCN` yielded an IC50 with HT-29 [1] of over 10 µM.
Regarding `N#Cc1ncc(Nc2ncc3c(ccc(=O)n3CC(=O)O)n2)cc1N[C@H]1CC[C@@H](N)CC1`, the IC50 in the data set with MV4-11 was over 10 µM.
Still for that read-out and setting: the figure for `N#Cc1ncc(Nc2ncc3c(ccc(=O)n3CC(F)F)n2)cc1OCCCN` is over 10 µM.
The same measure, in the same setting: for `CCn1c(=O)ccc2nc(Nc3cnc(C#N)c(N[C@H]4CC[C@@H](N)CC4)c3)ncc21` the value was 2.23 µM.
In turn, `N#Cc1ncc(Nc2ncc3[nH]c(=O)ccc3n2)cc1NC[C@@H]1CCCNC1` returned a 50% inhibitory concentration (IC50) in the data set with HT-29 [1] of over 10 µM.
As to `N#Cc1ncc(Nc2ncc3[nH]c(=O)ccc3n2)cc1N[C@H]1CC[C@@H](N)CC1`, the results for the IC50 in the data set with MV4-11 and with HT-29 [1] were 0.0565 µM and over 10 µM, respectively.
In the case of `N#Cc1ncc(Nc2ncc3c(ccc(=O)n3CC(F)F)n2)cc1N[C@H]1CC[C@@H](N)CC1`, in the data set on MV4-11, the IC50 is 2.47 µM.

For the origin of these results see ChEMBL document CHEMBL5500341, “Discovery of pyrido[3,2-d]pyrimidin-6(5H)-one derivatives as checkpoint kinase 1 (CHK1) inhibitors with potent antitumor efficacy” (Eur J Med Chem, 2024).
